Counter-ions that a name gives are not always drawn. Like-named read-outs stand apart in the source and are kept apart here.
Columns and labels:
CCK-A = biological target: T1, CCK-A (Rattus norvegicus, UniProt P30551); experiment: biochemical; type: binding
T1 sequence (P30551 1-444): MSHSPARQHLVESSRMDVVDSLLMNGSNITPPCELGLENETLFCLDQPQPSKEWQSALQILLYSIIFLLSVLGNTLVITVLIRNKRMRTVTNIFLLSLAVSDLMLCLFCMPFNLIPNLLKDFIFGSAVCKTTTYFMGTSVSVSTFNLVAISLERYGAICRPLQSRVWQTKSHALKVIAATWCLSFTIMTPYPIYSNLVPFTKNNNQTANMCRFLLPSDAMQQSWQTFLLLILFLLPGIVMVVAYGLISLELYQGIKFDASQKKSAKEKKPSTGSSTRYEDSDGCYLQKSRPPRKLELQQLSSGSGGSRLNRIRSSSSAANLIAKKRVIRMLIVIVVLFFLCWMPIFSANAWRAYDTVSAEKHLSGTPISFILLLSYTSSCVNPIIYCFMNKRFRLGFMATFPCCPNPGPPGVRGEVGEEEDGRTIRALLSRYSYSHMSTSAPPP
Method: (§1) The CCK-A and CCK-B antagonising activity of the compounds described herein was evaluated using the assays described in published European patent application no. 0514133. The method essentially involves determining the concentration of the test compound required to displace 50% of the specific ^125 I-CCK from rat pancreas (CCK-A) or guinea pig brain (CCK-B).

CCK-B = biological target: T2, CCK-B (Cavia porcellus, UniProt H0VZC5); experiment: displacement of specific 125I-CCK from guinea pig brain (CCK-B receptor binding)
T2 construct: guinea pig brain (CCK-B); from tissue; host or cells: guinea pig brain
T2 sequence (H0VZC5 1-426): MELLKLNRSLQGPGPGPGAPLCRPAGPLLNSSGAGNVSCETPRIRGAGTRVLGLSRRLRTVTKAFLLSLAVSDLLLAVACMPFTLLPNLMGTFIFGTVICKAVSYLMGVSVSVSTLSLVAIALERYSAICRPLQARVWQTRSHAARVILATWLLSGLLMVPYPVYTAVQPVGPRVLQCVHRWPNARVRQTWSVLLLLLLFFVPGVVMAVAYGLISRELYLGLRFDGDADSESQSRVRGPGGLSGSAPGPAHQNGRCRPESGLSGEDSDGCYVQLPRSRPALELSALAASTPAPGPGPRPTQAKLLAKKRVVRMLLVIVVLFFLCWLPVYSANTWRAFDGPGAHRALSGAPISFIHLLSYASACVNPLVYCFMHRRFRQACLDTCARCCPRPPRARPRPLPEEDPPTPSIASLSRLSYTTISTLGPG
Method: as §1, with “(CCK-B). The data in Table 1 were obtained for compounds of the Examples.” for “(CCK-B).”

[1] = rat pancreas (CCK-A), 125I-CCK, read-out: CCK RECEPTOR BINDING RESULTS IC50 125I-CCK Pancreas
[2] = read-out: CCK RECEPTOR BINDING RESULTS IC50 125I-CCK Brain
[3] = CCK RECEPTOR BINDING RESULTS IC50 125I-CCK Pancreas, rat pancreas (CCK-A), 125I-CCK
[4] = CCK RECEPTOR BINDING RESULTS IC50 125I-CCK Brain

Row | Compound | IC50 (CCK-A; [1]) | IC50 (CCK-B; [2]) | IC50 (CCK-A; read-out: CCK RECEPTOR BINDING RESULTS IC50 125I-CCK Pancreas) | IC50 (CCK-A; [3]) | IC50 (CCK-B; [4])
1 | CN1C(=O)C(NC(=O)Nc2ccc3c(c2)CCC3)N=C(N2CCC(C)(C)CC2)c2ccccc21 (single isomer, unassigned) [5 (enantiomer A)] | 0.738 µM | 0.00049 µM |  |  | 
2 | CN1C(=O)C(NC(=O)Nc2ccc3c(c2)CCC3)N=C(N2CCC(C)(C)CC2)c2ccccc21 (single isomer, unassigned) [5 (enantiomer B)] | 0.0078 µM | 0.0148 µM |  |  | 
3 | Cc1cccc(NC(=O)NC2N=C(N3CCC(C)CC3)c3ccccc3N(C)C2=O)c1 (single isomer, unassigned) [8 (enantiomer A)] | 0.981 µM | 0.00035 µM |  |  | 
4 | Cc1cccc(NC(=O)NC2N=C(N3CCC(C)CC3)c3ccccc3N(C)C2=O)c1 (single isomer, unassigned) [8 (enantiomer B)] | 0.00261 µM | 0.0232 µM |  |  | 
5 | Cc1cccc(NC(=O)NC2N=C(N3CCC(C)(C)CC3)c3ccccc3N(C)C2=O)c1 (single isomer, unassigned) [10 (enantiomer A)] | 0.421 µM | 0.00076 µM |  |  | 
6 | Cc1cccc(NC(=O)NC2N=C(N3CCC(C)(C)CC3)c3ccccc3N(C)C2=O)c1 (single isomer, unassigned) [10 (enantiomer B)] | 0.00042 µM | 0.0126 µM |  |  | 
7 | COC1CCN(C2=NC(NC(=O)Nc3cccc(C)c3)C(=O)N(C)c3ccccc32)CC1 (single isomer, unassigned) [14 (enantiomer A)] | 3.22 µM | 0.0116 µM |  |  | 
8 | COC1CCN(C2=NC(NC(=O)Nc3cccc(C)c3)C(=O)N(C)c3ccccc32)CC1 (single isomer, unassigned) [14 (enantiomer B)] | 0.0114 µM | 0.174 µM |  |  | 
9 | C[C@@H]1CCC[C@H](C)N1C1=NC(NC(=O)Nc2ccc3c(c2)CCC3)C(=O)N(C)c2ccccc21 (single isomer, unassigned) [15 (enantiomer A)] | 1.9 µM | 0.00347 µM |  |  | 
10 | C[C@@H]1CCC[C@H](C)N1C1=NC(NC(=O)Nc2ccc3c(c2)CCC3)C(=O)N(C)c2ccccc21 (single isomer, unassigned) [15 (enantiomer B)] | 0.163 µM | 0.075 µM |  |  | 
11 | Cc1cccc(NC(=O)NC2N=C(N3CC4CCC(CC4)C3)c3ccccc3N(C)C2=O)c1 (single isomer, unassigned; (+)) [Example 34, (+)-N-[5-(3-Azabicyclo[3,2,2]nonan-3-yl)-2,3-dihydro-1-methyl-2-oxo-1H-1,4-benzodiazepin-3-yl]-N'-[3-methylphenyl]urea Hydrochloride] |  |  |  | 0.00646 µM | 0.0267 µM
12 | CN1C(=O)C(NC(=O)Nc2cccc(F)c2)N=C(N2CC3CCC(CC3)C2)c2ccccc21 (single isomer, unassigned; (+)) [Example 37, (+)-N-[5-(3-Azabicyclo[3,2,2]nonan-3-yl)-2,3-dihydro-1-methyl-2-oxo-1H-1,4-benzodiazepin-3-yl]-N'-[3-fluorophenyl]urea Hydrochloride] |  |  |  | 0.009 µM | 0.144 µM
13 | Cc1ccc(NC(=O)NC2N=C(N3CC4CCC(CC4)C3)c3ccccc3N(C)C2=O)cc1F (single isomer, unassigned; (+)) [Example 46, (+)-N-[5-(3-Azabicyclo[3,2,2]nonan-3-yl)-2,3-dihydro-1-methyl-2-oxo-1H-1,4-benzodiazepin-3-yl]-N'-[3-fluoro-4-methylphenyl]urea Hydrochloride] |  |  |  | 0.0237 µM | 0.0201 µM
14 | CN1C(=O)C(NC(=O)Nc2cccc(I)c2)N=C(N2CC3CCC(CC3)C2)c2ccccc21 (single isomer, unassigned; (+)) [Example 49, (+)-N-[5-(3-Azabicyclo[3,2,2]nonan-3-yl)-2,3-dihydro-1-methyl-2-oxo-1H-1,4-benzodiazepin-3-yl]-N'-[3-iodophenyl]urea] | 0.00965 µM |  |  |  | 0.0827 µM
15 | Cc1cc(NC(=O)NC2N=C(N3CC4CCC(CC4)C3)c3ccccc3N(C)C2=O)ccc1F (single isomer, unassigned; (+)) [Example 54, (+)-N-[5-(3-Azabicyclo[3,2,2]nonan-3-yl)-2,3-dihydro-1-methyl-2-oxo-1H-1,4-benzodiazepin-3-yl]-N'-[4-fluoro-3-methylphenyl]urea Hydrochloride] |  |  |  | 0.0084 µM | 0.068 µM
16 | CN1C(=O)C(NC(=O)Nc2cccc(C(F)(F)F)c2)N=C(N2CC3CCC(CC3)C2)c2ccccc21 (single isomer, unassigned; (+)) [Example 56, (+)-N-[5-(3-Azabicyclo[3,2,2]nonan-3-yl)-2,3-dihydro-1-methyl-2-oxo-1H-1,4-benzodiazepin-3-yl]-N'-[3-trifluoromethylphenyl]urea Hydrochloride] | 0.062 µM | 0.047 µM |  |  | 

More lines, main results first:

Row | IC50 (CCK-A; [1]) | IC50 (CCK-B; [2]) | IC50 (CCK-A; read-out: CCK RECEPTOR BINDING RESULTS IC50 125I-CCK Pancreas) | Compound | IC50 (CCK-A; [3]) | IC50 (CCK-B; [4])
17 | 0.0941 µM | 0.148 µM |  | CC1CCN(C2=NC(NC(=O)Nc3cccc(N4CCN(C)CC4)c3)C(=O)N(C)c3ccccc32)CC1 (racemic) [Example 96, N-[3(R,S)-2,3-Dihydro-1-methyl-5-(4-methylpiperidin-1-yl)-2-oxo-1H-1,4-benzodiazepin-3-yl]N'-[3-(N-methyl-N'-piperazinyl)phenyl]urea] |  | 
18 | 0.0123 µM | 0.0046 µM |  | Cc1cccc(NC(=O)NC2N=C(N3C[C@H]4CCCC[C@H]4C3)c3ccccc3N(C)C2=O)c1 (relative stereo) [Example 57, N-[3(R,S)-2,3-Dihydro-1-methyl-5-(cis-octahydroisoindol-2-yl)-2-oxo-1H-1,4-benzodiazepin-3-yl]-N'-[3-methylphenyl]urea] |  | 
19 | 0.765 µM | 0.00064 µM |  | CCCN1C(=O)C(NC(=O)Nc2cccc(C)c2)N=C(N2CCC(C)CC2)c2ccccc21 (single isomer, unassigned) [18 (enantiomer A)] |  | 
20 | 3.29 µM | 0.00152 µM |  | Cc1cccc(NC(=O)NC2N=C(N3CCC(C(F)(F)F)CC3)c3ccccc3N(C)C2=O)c1 (single isomer, unassigned) [20 (enantiomer A)] |  | 
21 | 0.04 µM | 0.044 µM |  | Cc1cccc(NC(=O)NC2N=C(N3CCC(C(F)(F)F)CC3)c3ccccc3N(C)C2=O)c1 (single isomer, unassigned) [20 (enantiomer B)] |  | 
22 | 3.67 µM | 0.0329 µM |  | Cc1cccc(NC(=O)NC2N=C(N3CCCCC3(C)C)c3ccccc3N(C)C2=O)c1 (single isomer, unassigned) [22 (enantiomer A)] |  | 
23 | 2.25 µM | 0.000927 µM |  | Cc1cccc(NC(=O)NC2N=C(N3[C@H](C)C[C@H](C)C[C@@H]3C)c3ccccc3N(C)C2=O)c1 (single isomer, unassigned) [24 (enantiomer A)] |  | 
24 | 0.046 µM | 0.05 µM |  | Cc1cccc(NC(=O)NC2N=C(N3[C@H](C)C[C@H](C)C[C@@H]3C)c3ccccc3N(C)C2=O)c1 (single isomer, unassigned) [24 (enantiomer B)] |  | 
25 | 0.239 µM | 0.0278 µM |  | Cc1cccc(NC(=O)NC2N=C(N3CCC(C)(C)CC3)c3ccccc3N(CC(F)(F)F)C2=O)c1 (single isomer, unassigned) [28 (enantiomer A)] |  | 
26 | 0.00397 µM | 0.281 µM |  | Cc1cccc(NC(=O)NC2N=C(N3CCC(C)(C)CC3)c3ccccc3N(CC(F)(F)F)C2=O)c1 (single isomer, unassigned) [28 (enantiomer B)] |  | 
27 | 0.347 µM | 0.00036 µM |  | CCN1C(=O)C(NC(=O)Nc2cccc(C)c2)N=C(N2CCC(C)(C)CC2)c2ccccc21 (single isomer, unassigned) [Example 30] |  | 
28 |  | 0.0363 µM | 0.0088 µM | Cc1cccc(NC(=O)NC2N=C(N3CC4CCC(C4)C3)c3ccccc3N(C)C2=O)c1 (single isomer, unassigned; (+)) [Example 40, (+)-N-[5-(3-Azabicyclo[3,2,1]octan-3-yl)-2,3-dihydro-1-methyl-2-oxo-1H-1,4-benzodiazepin-3-yl]-N'-[3-methylphenyl]urea Hydrochloride] |  | 

Reference: patent US5618812A, “Benzodiazepine derivatives” (Merck Sharp & Dohme, Ltd., priority 1992, dated 1997)
